According to ChEMBL document CHEMBL1201862, “PubChem BioAssay data set” (2004):
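Growth conditions: 96-well plates. Treatment: test compound, 48 hours, 5 concentrations. Analysis: linear interpolation between bracketing concentrations; unreached endpoints set to highest concentration. GI50 marks 50% less growth.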 The source made the active and inactive calls. No stated cut-off is given here; in the data, active = GI50 up to about 1.1 µM and inactive = higher.

Key:
Assay in all cases: inhibition of tumour cell growth, NCI panel, 48 h
T47D = test system: T47D
SF-539 = test system: SF-539
SK-MEL-28 = test system: SK-MEL-28
CCRF-CEM = test system: CCRF-CEM
TK-10 = test system: TK-10
HCT-15 = test system: HCT-15
M14 = test system: M14
NCI-H23 = test system: NCI-H23
KM12 = test system: KM12
SF-268 = test system: SF-268
SK-MEL-5 = test system: SK-MEL-5
PC-3 = test system: PC-3
NCI-H226 = test system: NCI-H226
RPMI-8226 = test system: RPMI-8226
SNB-75 = test system: SNB-75
IGROV-1 = test system: IGROV-1
BT-549 = test system: BT-549
HCT-116 = test system: HCT-116
786-0 = test system: 786-0
SR = test system: SR

SMILES	GI50 (T47D)	GI50 (SF-539)	GI50 (SK-MEL-28)	GI50 (CCRF-CEM)	GI50 (TK-10)	GI50 (HCT-15)	GI50 (M14)	GI50 (NCI-H23)	GI50 (KM12)	GI50 (SF-268)	GI50 (SK-MEL-5)	GI50 (PC-3)	GI50 (NCI-H226)	GI50 (RPMI-8226)	GI50 (SNB-75)	GI50 (IGROV-1)	GI50 (BT-549)	GI50 (HCT-116)	GI50 (786-0)	GI50 (SR)
NNC(=O)c1ccccc1Nc1ccccc1C(=O)NN	> 100 µM (inactive)	> 100 µM (inactive)	> 100 µM (inactive)	> 100 µM (inactive)	> 100 µM (inactive)	> 100 µM	> 100 µM (inactive)	> 100 µM (inactive)	> 100 µM (inactive)	> 100 µM (inactive)	> 100 µM (inactive)	> 100 µM (inactive)	> 100 µM (inactive)	> 100 µM (inactive)	> 100 µM (inactive)	> 100 µM (inactive)	> 100 µM (inactive)	> 100 µM (inactive)	> 100 µM (inactive)	–
CCN(CC)c1ccc(C2Nc3ccc4ccccc4c3C3=C2C(=O)CCC3)cc1 (stereo unspecified)	39 µM (inactive)	13.1 µM (inactive)	> 100 µM (inactive)	> 100 µM (inactive)	–	> 100 µM	> 100 µM (inactive)	75 µM (inactive)	> 100 µM (inactive)	27.5 µM (inactive)	–	39.3 µM (inactive)	35.8 µM (inactive)	> 100 µM (inactive)	17.3 µM (inactive)	–	60.8 µM (inactive)	25.3 µM (inactive)	19.4 µM (inactive)	–
CC1=CC(=O)/C(=C/NC(=S)NCCc2ccccc2)C(=O)O1	> 100 µM (inactive)	> 100 µM (inactive)	> 100 µM (inactive)	–	6.44 µM (inactive)	> 100 µM	> 100 µM (inactive)	> 100 µM (inactive)	> 100 µM (inactive)	–	> 100 µM (inactive)	> 100 µM (inactive)	> 100 µM (inactive)	–	75 µM (inactive)	> 100 µM (inactive)	53.7 µM (inactive)	27.2 µM (inactive)	31 µM (inactive)	–
O=C(/C=C/c1c(O)nc2ccccc2c1O)CC(=O)C(=O)Nc1cccc(O)c1	> 100 µM (inactive)	> 100 µM (inactive)	> 100 µM (inactive)	21.1 µM (inactive)	> 100 µM (inactive)	> 100 µM	> 100 µM (inactive)	> 100 µM (inactive)	> 100 µM (inactive)	> 100 µM (inactive)	> 100 µM (inactive)	> 100 µM (inactive)	> 100 µM (inactive)	> 100 µM (inactive)	> 100 µM (inactive)	> 100 µM (inactive)	> 100 µM (inactive)	> 100 µM (inactive)	> 100 µM (inactive)	–
CC(=O)c1c(O)c(C)c(O)c(Cc2c(O)c3c(c(C(=O)/C=C/c4ccccc4)c2O)OC(C)(C)C=C3)c1O [ROTTLERIN]	1.85 µM (inactive)	2.99 µM (inactive)	2.86 µM (inactive)	2.99 µM (inactive)	2.98 µM (inactive)	2.52 µM	3.23 µM (inactive)	2.37 µM (inactive)	2.81 µM (inactive)	3.61 µM (inactive)	1.87 µM (inactive)	1.11 µM (active)	3.45 µM (inactive)	1.79 µM (inactive)	1.27 µM (inactive)	3.1 µM (inactive)	2.51 µM (inactive)	1.82 µM (inactive)	2.85 µM (inactive)	–
CC(C)(C)c1cc(C(C)(C)C)c(SS(=O)(=O)O)c(O)c1O	33.7 µM (inactive)	15.1 µM (inactive)	81.8 µM (inactive)	49 µM (inactive)	> 100 µM (inactive)	48.3 µM	41.3 µM (inactive)	> 100 µM (inactive)	41.8 µM (inactive)	13.4 µM (inactive)	34 µM (inactive)	50.1 µM (inactive)	40 µM (inactive)	21.6 µM (inactive)	34.5 µM (inactive)	55.7 µM (inactive)	> 100 µM (inactive)	33 µM (inactive)	63.7 µM (inactive)	–
Cc1cc(C)c2c(c1)C1=NCCN1C2(O)c1ccc(Cl)cc1 (stereo unspecified)	16.4 µM (inactive)	15.3 µM (inactive)	16.8 µM (inactive)	17.2 µM (inactive)	2.79 µM (inactive)	17.2 µM	14.5 µM (inactive)	17.8 µM (inactive)	15.3 µM (inactive)	15.8 µM (inactive)	14.6 µM (inactive)	16 µM (inactive)	–	13.6 µM (inactive)	12.3 µM (inactive)	14.2 µM (inactive)	13.2 µM (inactive)	13.3 µM (inactive)	16.1 µM (inactive)	20.1 µM (inactive)
CC1=C2O[C@]3(O)C=C2C(=C(O)C1=O)[C@@H]1O[C@H](CC[C@H](C)/C=C(\C)C[C@@H](C)C[C@@H]3C)[C@H](C)[C@H](O)[C@H]1C [KENDOMYCIN]	–	0.173 µM (active)	0.229 µM (active)	0.0473 µM (active)	0.155 µM (active)	0.124 µM	0.161 µM (active)	0.316 µM (active)	0.661 µM (active)	0.354 µM (active)	0.498 µM (active)	0.269 µM (active)	1.12 µM (active)	0.118 µM (active)	0.394 µM (active)	0.163 µM (active)	0.331 µM (active)	0.176 µM (active)	0.149 µM (active)	0.135 µM (active)
